Results on one compound are retold here after patent US7659283B2, “Pyrrolo [3,2-C] pyridines useful as inhibitors of protein kinases” (Vertex Pharmaceuticals Incorporated, priority 2006, dated 2010).

Molecules are shown by their SMILES.

One assay has as its target human Lck kinase (Homo sapiens, UniProt P06239). As to the kind of experiment: Lck Inhibition Assay: Spectrophotometric Assay. As to conditions: 60 nM Lck, 500 μM ATP, 30° C., coupled NADH spectrophotometric assay; read-out: Ki (inhibit Lck). The class given is biochemical. The procedure:
The compounds are evaluated as inhibitors of human Lck kinase using a spectrophotometric assay.
Lck Inhibition Assay: Spectrophotometric Assay
An assay buffer solution was prepared which consisted of 25 mM HEPES (pH 7.5), 10 mM MgCl2, 250 μM NADH, 3 mM phosphoenolpyruvate, 43 μg/mL pyruvate kinase, 14 μg/mL lactate dehydrogenase, 560 μM ATP and 67 nM Lck. To 60 μL of this solution, in a 96 well plate, was added 2 μL of test compound stock solution in DMSO and the mixture allowed to equilibrate for 10 minutes at 30° C. The enzyme reaction was initiated by the addition of 5 μL 15 mg/mL poly Glu, Tyr (4:1) prepared in 25 mM HEPES (pH 7.5). Final assay concentrations of Lck and ATP are 60 nM and 500 μM respectively. Initial rate data was determined from the rate of change of absorbance at 340 nm (corresponding to stoichiometric consumption of NADH) using a Molecular Devices Spectramax plate reader (Sunnyvale, Calif.) over 10 min at 30° C. For each Ki determination 8 data points covering the test compound compound concentration range of 0-7.5 μM are obtained in duplicate. Ki values are calculated from initial rate data by non-linear regression using the Prism software package (Prism 4.0a, Graphpad Software, San Diego, Calif.).

The target in the next assay is human Src kinase (Homo sapiens, UniProt P12931). The assay can be described thus: Src Inhibition Assay: Spectrophotometric Assay. As to conditions: 25 nM Src, 100 μM ATP, 30° C., coupled NADH spectrophotometric assay; read-out: Ki (inhibit Src). Format: biochemical. How it is done: The compounds are evaluated as inhibitors of human Src kinase using a spectrophotometric assay.
Src Inhibition Assay: Spectrophotometric Assay
An assay buffer solution was prepared which consisted of 25 mM HEPES (pH 7.5), 10 mM MgCl2, 250 μM NADH, 3 mM phosphoenolpyruvate, 60 μg/mL pyruvate kinase, 21 μg/mL lactate dehydrogenase, 113 μM ATP and 28 nM Src. To 60 μL of this solution, in a 96 well plate, was added 2 μL of test compound stock solution in DMSO and the mixture allowed to equilibrate for 10 mins at 30° C. The enzyme reaction was initiated by the addition of 5 μL 10 mg/mL poly Glu, Tyr (4:1) prepared in 25 mM HEPES (pH 7.5). Final assay concentrations of Src and ATP were 25 nM and 100 μM respectively. Initial rate data was determined from the rate of change of absorbance at 340 nm (corresponding to stoichiometric consumption of NADH) using a Molecular Devices Spectramax plate reader (Sunnyvale, Calif.) over 10 mins at 30° C. For each Ki determination 8 data points covering the test compound concentration range of 0-7.5 μM were obtained in duplicate. Ki values were calculated from initial rate data by non-linear regression using the Prism software package (Prism 4.0a, Graphpad Software, San Diego, Calif.).

Sequence of human Lck kinase (P06239 whole entry): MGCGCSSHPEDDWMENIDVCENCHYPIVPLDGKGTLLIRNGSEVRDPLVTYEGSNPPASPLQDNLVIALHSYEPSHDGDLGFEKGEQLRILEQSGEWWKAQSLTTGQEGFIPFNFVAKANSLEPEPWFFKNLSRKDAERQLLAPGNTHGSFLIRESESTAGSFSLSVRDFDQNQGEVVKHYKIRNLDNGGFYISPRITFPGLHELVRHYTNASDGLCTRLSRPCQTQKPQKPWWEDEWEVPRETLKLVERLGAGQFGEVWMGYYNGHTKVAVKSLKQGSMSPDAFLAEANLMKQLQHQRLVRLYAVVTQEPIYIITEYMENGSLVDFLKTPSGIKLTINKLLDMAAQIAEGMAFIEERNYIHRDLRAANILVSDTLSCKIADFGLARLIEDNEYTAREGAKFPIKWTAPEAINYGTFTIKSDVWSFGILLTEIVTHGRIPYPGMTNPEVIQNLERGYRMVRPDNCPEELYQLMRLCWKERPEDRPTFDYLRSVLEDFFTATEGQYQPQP
Sequence of human Src kinase (P12931 whole entry): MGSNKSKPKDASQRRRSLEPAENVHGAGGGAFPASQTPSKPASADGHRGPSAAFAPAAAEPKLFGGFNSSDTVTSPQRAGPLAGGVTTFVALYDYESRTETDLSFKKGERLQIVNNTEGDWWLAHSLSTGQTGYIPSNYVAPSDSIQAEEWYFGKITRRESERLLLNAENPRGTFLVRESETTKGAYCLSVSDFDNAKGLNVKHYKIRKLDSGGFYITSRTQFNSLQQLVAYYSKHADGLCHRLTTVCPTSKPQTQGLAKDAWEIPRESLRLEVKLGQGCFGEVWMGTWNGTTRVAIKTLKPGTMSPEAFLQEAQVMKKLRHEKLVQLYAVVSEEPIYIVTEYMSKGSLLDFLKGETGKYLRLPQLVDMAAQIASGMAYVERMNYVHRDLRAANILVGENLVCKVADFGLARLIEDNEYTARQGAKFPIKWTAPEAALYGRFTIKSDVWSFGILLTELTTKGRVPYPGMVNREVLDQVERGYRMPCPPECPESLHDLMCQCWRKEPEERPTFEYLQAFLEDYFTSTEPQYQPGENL

As usually defined, the Ki is a dissociation constant, usually derived from enzyme kinetics or from competition with a known ligand. Turning to `Nc1nccc2c1c(-c1ccc(Oc3ccccc3)cc1)cn2C1CCCC1` [Compound I-1, 1-Cyclopentyl-3-(4-phenoxyphenyl)-1H-pyrrolo[3,2-c]pyridin-4-amine], the Ki at human Lck kinase and on human Src kinase was less than 1000 nM throughout.
